Source: US11999727B2 (Tango Therapeutics, Inc., priority 2020, dated 2024)
Where two headings read alike, the source gives them in different places.

Experiments:
[1] = system: HAP1 MTAP-intact cell line; assay: SDMA in-cell western assay, HAP1 MTAP-intact; format: cell-based; details: HAP1 MTAP-intact, read-out: MTAP HAP1 intact IC50
Method in brief: (§1)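 Compounds were tested in HAP1 cells differing only in MTAP status (endogenous expression versus null). Cellular SDMA levels were then measured by in-cell western, giving an IC50 in each background.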

[2] = system: HAP1 MTAP-deleted cell line; assay: Viability assay, MTAP-deleted cell line; format: cell-based; details: Homo sapiens, read-out: HAP1 MTAP deleted viability
Source text: Table 1 additionally indicates IC50 values in a viability assay for the MTAP-deleted cell line (column 10), indicating the effect of treatment with compound on cell survival.

PRMT5 [3] = target: T1, PRMT5 (Homo sapiens, UniProt O14744); assay: PRMT5 biochemical IC50 assay with no cofactor; details: PRMT5, no cofactor
T1 construct: purchased Viva (custom protein)
Source text: Table 1 indicates IC50 values (μM) against PRMT5 for exemplary compounds in the presence of SAM as cofactor, with no cofactor, and with MTA as cofactor, respectively (columns 4-6). […] Ki values can be calculated from the IC50 values as described in the Examples section. As detailed in the Examples section, for the assay performed in the presence of SAM, IC50=Ki×1.5 (Ki=IC50/1.5).

[4] = system: HAP1 MTAP-deleted cell line; assay: SDMA in-cell western assay, HAP1 MTAP-deleted; format: cell-based; details: for IC50: Homo sapiens, HAP1, SDMA in-cell western, HAP1 MTAP-deleted; for MTAP intact/deleted ratio: IC50 ratio HAP1 MTAP-intact / HAP1 MTAP-deleted, SDMA in-cell western
Method in brief: as §1

PRMT5 [5] = target: T1, PRMT5; assay: PRMT5 biochemical IC50 assay with SAM as cofactor; details: PRMT5, SAM as cofactor; read-out: SAM IC50
PRMT5 [6] = target: T1, PRMT5; assay: PRMT5 biochemical IC50 assay with MTA as cofactor; details: PRMT5, MTA as cofactor; read-out: MTA IC50
[7] = Homo sapiens, HAP1, SDMA in-cell western
[8] = HAP1, viability IC50, MTAP-deleted cell line
[9] = read-out: HAP 1 MTAP deleted IC50
[10] = read-out: No Cofactor/ rel IC50
[11] = HAP1, viability assay, MTAP-deleted cell line
[12] = read-out: HAP1 MTAP deleted IC50

T1 sequence (O14744 whole entry): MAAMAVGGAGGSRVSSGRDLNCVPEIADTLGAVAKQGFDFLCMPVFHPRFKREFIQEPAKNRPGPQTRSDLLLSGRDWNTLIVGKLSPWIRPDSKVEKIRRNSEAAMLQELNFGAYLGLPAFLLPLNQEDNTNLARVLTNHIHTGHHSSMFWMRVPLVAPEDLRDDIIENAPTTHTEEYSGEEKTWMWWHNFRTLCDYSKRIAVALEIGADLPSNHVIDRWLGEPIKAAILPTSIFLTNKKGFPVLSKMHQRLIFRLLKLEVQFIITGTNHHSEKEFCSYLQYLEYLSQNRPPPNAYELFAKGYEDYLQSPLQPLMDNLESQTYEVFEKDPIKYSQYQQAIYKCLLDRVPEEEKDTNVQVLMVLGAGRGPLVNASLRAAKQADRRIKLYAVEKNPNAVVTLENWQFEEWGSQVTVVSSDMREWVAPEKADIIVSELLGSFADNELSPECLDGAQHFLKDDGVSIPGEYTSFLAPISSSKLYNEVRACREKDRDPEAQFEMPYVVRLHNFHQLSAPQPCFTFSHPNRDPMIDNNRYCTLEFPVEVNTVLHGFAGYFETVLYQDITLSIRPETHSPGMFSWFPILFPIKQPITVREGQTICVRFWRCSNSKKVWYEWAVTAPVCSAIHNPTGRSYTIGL
T1 sequence (Q9BQA1 whole entry partner): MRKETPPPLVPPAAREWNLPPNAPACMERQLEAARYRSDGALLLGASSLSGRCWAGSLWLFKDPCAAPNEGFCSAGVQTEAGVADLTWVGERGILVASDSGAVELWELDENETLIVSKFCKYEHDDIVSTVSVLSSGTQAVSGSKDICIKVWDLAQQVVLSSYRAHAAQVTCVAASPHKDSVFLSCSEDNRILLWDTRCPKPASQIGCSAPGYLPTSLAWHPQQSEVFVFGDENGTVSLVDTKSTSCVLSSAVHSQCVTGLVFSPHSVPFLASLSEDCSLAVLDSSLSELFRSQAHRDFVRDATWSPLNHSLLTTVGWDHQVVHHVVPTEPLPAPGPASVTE

Row | IC50 [1, 7] [nM] | IC50 (PRMT5 [3]; read-out: No Cofactor/rel IC50) [nM] | IC50 [4, 9] [nM] | IC50 (PRMT5 [5]) [nM] | IC50 (PRMT5 [6]) [nM] | IC50 ([1]; SDMA in-cell western) [nM] | IC50 (PRMT5 [3]; [10]) [nM] | IC50 [4, 12] [nM] | SMILES | IC50 [2, 8] [nM] | MTAP intact/deleted ratio [4] | IC50 ([2]; HAP1, viability, HAP1 MTAP-deleted cell line) [nM] | IC50 [2, 11] [nM]
1 | > 1000 | > 500 | > 1000 | > 500 | > 500 |  |  |  | COc1cc([C@H]2CC[C@H](C)CN2C(=O)C(=O)Nc2cncc(C(N)=O)c2)ccn1 (single isomer, unassigned) [Compound 533] | > 10000 | C (an IC50 ratio of less than 3 fold) |  | 
2 |  |  | < 100 | 50 to 500 | < 50 | < 100 | < 50 |  | CCc1cc(NC(=O)C(=O)N2C[C@@H](C)CC[C@@H]2c2ccc3sc([C@H]4CCN(C)C(C)(C)C4)nc3c2)cnc1N (single isomer, unassigned) [Compound 1397] |  | A (an IC50 ratio greater than or equal to 10 fold) | < 1000 | 
3 | > 1000 | 50 to 500 |  | 50 to 500 | < 50 |  |  | < 100 | C[C@@H]1CC[C@@H](c2ccc(C#N)c(C3CC3)c2)N(C(=O)C(=O)Nc2cncc(C(N)=O)c2)C1 (racemic) [Compound 244, rac-5-{2-[(2R,5S)-2-(4-Cyano-3-cyclopropylphenyl)-5-methylpiperidin-1-yl]-2-oxoacetamido}pyridine-3-carboxamide] |  | A (an IC50 ratio greater than or equal to 10 fold) |  | 1000 to 10000
4 | > 1000 |  | < 100 | 50 to 500 | < 50 |  | 50 to 500 |  | Cc1ccc([C@@H]2CC[C@@H](C)CN2C(=O)C(=O)Nc2cncc(C(N)=O)c2)cc1F (racemic) [Compound 162, rac-5-{2-[(2R,5S)-2-(3-Fluoro-4-methylphenyl)-5-methylpiperidin-1-yl]-2-oxoacetamido}pyridine-3-carboxamide] |  | A (an IC50 ratio greater than or equal to 10 fold) |  | 1000 to 10000
5 | > 1000 | > 500 | 100 to 1000 | 50 to 500 | 50 to 500 |  |  |  | CC[C@@H]1CC[C@H](c2ccccc2)N(C(=O)C(=O)Nc2cncc(C(N)=O)c2)C1 (single isomer, unassigned) [Compound 565] | > 10000 | A (an IC50 ratio greater than or equal to 10 fold) |  | 
6 | > 1000 | 50 to 500 |  | 50 to 500 | < 50 |  |  | < 100 | Cc1ccc([C@H]2CC[C@H](C)CN2C(=O)C(=O)Nc2cncc(C(N)=O)c2)cc1Cl (single isomer, unassigned) [Compound 484] |  | A (an IC50 ratio greater than or equal to 10 fold) |  | 1000 to 10000
7 | > 1000 |  | > 1000 | > 500 | 50 to 500 |  | > 500 |  | Cc1cccc([C@@H]2CCCCN2C(=O)C(=O)Nc2cnc(N)c(C)c2)c1 (single isomer, unassigned) [Compound 57] |  | C (an IC50 ratio of less than 3 fold) |  | > 10000
8 | > 1000 |  | > 1000 | 50 to 500 | 50 to 500 |  | > 500 |  | Cc1cc(NC(=O)C(=O)N2CCCCC2c2cccc3[nH]cnc23)cnc1N (stereo not drawn) [Compound 142, N-(6-Amino-5-methyl-3-pyridyl)-2-[2-(1H-benzimidazol-4-yl)-1-piperidyl]-2-oxo-acetamide] |  | B (an IC50 ratio greater than or equal to 3 fold but lower than 10 fold) |  | > 10000
9 | > 1000 |  | > 1000 | > 500 | 50 to 500 |  | > 500 |  | Cc1cncc(NC(=O)C(=O)N2C[C@H](C)CC[C@H]2c2cccc(Cl)c2)c1 (racemic) [Compound 13, 2-[(2R,5S)-2-(3-chlorophenyl)-5-methyl-1-piperidyl]-N-(5-methyl-3-pyridyl)-2-oxo-acetamide] |  | C (an IC50 ratio of less than 3 fold) |  | > 10000
